Read-outs that look alike come from different tables or passages of the source.

In data set [1] the test system is HepG2 cells (mitochondrial COXII DNA). The settings on record: for Average ΔCt ± s.d. MitCoxII / Average ΔCt ± s.d. rDNA / Average ΔΔCt ± s.d. MitCOXII-rDNA / Fold difference in COXII DNA levels normalized for rDNA (range) relative to control: HepG2, 14-day treatment; for effect on mitochondrial DNA levels (in words): HepG2, up to 100 μM, 14 days.
Data set [2] relates to HBV (wild-type virus: rtM204) in HepAD38 cells. Briefly: Suppression of HBV production in HepAD38 cells, viral DNA in supernatant by Q-PCR. Format: cell-based. The settings on record: HepAD38 cells, 5-day incubation; for HepAD38 log10 inhibition at 10 μM: HBV DNA in supernatant; for EC90: concentration reducing viral load by 90%, unit printed in text only, read-out: HepAD38 EC90. The source says: The HepAD38 (wild-type virus: rtM204) and HepAD79 (3TC-resistant virus: rtV204) (Stuyver L. J. et al. 2001, Hepatol., 33:751-757) cell lines replicate HBV under conditions that can be regulated with tetracycline (King R. W. et al. 2000, Methods in Molecular Medicine, Vol 24: Antiviral Methods and Protocols, 43-50 (eds: D. Kinchington & R. F. Schinazi), Humana Press Inc, Totowa, N.J.); Ladner, et al. 1997, Antimicrob. Agents Chemother., 41:1715-1720; Ladner S. K., et al. 1998a. Antivir. Chem. Chemother., 9:65-72; Ladner S. K., et al. 1998b. Antimicrob. Agents Chemother., 42:2128-31). In the presence of this drug, the cell supernatant is virtually free of viral DNA, but upon the removal of tetracycline from the culture medium, these cells secrete virus-like particle into the supernatant.
(§1) HepAD38 and HepAD79 cells were seeded at 5×10^4 cells/well in a 96-well plate in seeding medium (DMEM/F12+10% FBS, 50 μg/ml penicillin, 50 μg/ml streptomycin, 100 μg/ml kanamycin, 400 μg/ml G418, and 0.3 μg/ml tetracycline) and incubated for 2 days at 37° C. in a 5% CO2, humidified atmosphere. The seeding media was removed, and cells were washed 3 times with PBS. Cells were then incubated with 200 μL assay medium (DMEM/F12+10% FBS+P/S/K) containing either (i) no compound, (ii) test compound, or (iii) control drugs at 10 μM. After an additional 5-day (HepAD38) or 13-day incubation (HepAD79, with renewal of the culture media at day 7), the cell supernatant was collected and stored at −70° C. until HBV DNA was quantified.
HBV DNA was extracted from supernatant using QiaAmp DNA blood Mini kit (Qiagen) and nucleic acids eluted in 200 μl Viral DNA was detected by quantitative PCR (Q-PCR). The TaqMan probe and primers were designed using the Primer Express software (Applied Biosystems) and cover highly conserved sequences complementary to the DNA sequences present in HBsAg. A total of 5 μl DNA was amplified using reagents and conditions as described by the manufacturer (Applied Biosystems). […]

Another data set has as its system M522V virus (rtV204 HBV). Conditions: Ono S. K. et al.; cited from earlier work.
The subject of data set [3] is HepG2 cells. The data set can be described thus: Cell growth of HepG2 cells during 14-day treatment. Format: cell-based, human. The settings on record: HepG2, up to 100 μM, 14 days. As to the method: (§2) In addition, these compounds were also tested in the HepG2 cell line (14-day treatment, 100 μM) for their ability to reduce mitochondrial DNA levels (using a newly designed normalized Q-PCR protocol as described in Stuyver, L. J., et al. 2002, Antimicrob. Agents Chemother., 46:3854-3860) or lactic acid production.

The test system of data set [4] is HBV (3TC-resistant virus: rtV204) in HepAD79 cells. Briefly: microbe, parasite or virus in culture. Type of data set: cell-based. Conditions: for HepAD79 log10 inhibition at 10 μM / EC90: HepAD79 cells, 13-day incubation; for HepAD79 log10 inhibition at 10 μM: HBV DNA in supernatant; for EC90: read-out: HepAD79 EC90; for FI EC90 AD79/EC90 AD38: fold increase, EC90 HepAD79 over EC90 HepAD38. As to the method: as §1
HBV DNA was extracted from supernatant using QiaAmp DNA blood Mini kit (Qiagen) and nucleic acids eluted in 200 μl Viral DNA was detected by quantitative PCR (Q-PCR). The TaqMan probe and primers were designed using the Primer Express software (Applied Biosystems) and cover highly conserved sequences complementary to the DNA sequences present in HBsAg. A total of 5 μl DNA was amplified using reagents and conditions as described by the manufacturer (Applied Biosystems).
Subsequently, the time course of viral induction in HepAD79 cells over a 13-day incubation period was investigated.
Therefore, the DNA extracted from the cell supernatant was also amplified by Q-PCR for the presence of cellular DNA (the rRNA gene).

Data set [5] concerns HepG2 cells. The data set can be described thus: Lactic acid production in HepG2 cells. Format: cell-based, human. The settings on record: HepG2, up to 100 μM, 14 days. On the procedure:
as §2

As for `Nc1nc(=O)n([C@@H]2C=C[C@H](CO)O2)cc1F` [L-d4FC], in data set [1] (10 μM), the “Average ΔCt ± s.d. MitCoxII” value amounted to 2.72 ± 0.27, the “Average ΔCt ± s.d. rDNA” value came to 3.89 ± 0.23, the “Average ΔΔCt ± s.d. MitCOXII-rDNA” value was −1.17 ± 0.47 and the “Fold difference in COXII DNA levels normalized for rDNA (range) relative to control” value is listed as 2.25 (1.62-3.12). Moreover, in data set [1] (100 μM), the “Average ΔCt ± s.d. MitCoxII” value came to 6.52 ± 0.14, the “Average ΔCt ± s.d. rDNA” value was found to be 8.76 ± 0.47, the “Average ΔΔCt ± s.d. MitCOXII-rDNA” value turned out to be 2.24 ± 0.58 and the “Fold difference in COXII DNA levels normalized for rDNA (range) relative to control” value was 4.72 (3.16-7.04). In data set [1], the “effect on mitochondrial DNA levels (in words)” value is given as “did not specifically affect the mitochondrial DNA levels”. In data set [2], the “HepAD38 log10 inhibition at 10 μM” value was 2.56 ± 0.44 log10 and the 90% effect concentration (EC90) turned out to be 50 ± 20 nM. Besides, in the data set on M522V virus (rtV204 HBV), the half-maximal effective concentration (EC50) was 1800 nM. Also, in the data set with HepG2 cells [3], the “effect on cell growth (in words)” value was “reduced the cell growth significantly”. For the same compound, in data set [4], the “HepAD79 log10 inhibition at 10 μM” value turned out to be 1.64 ± 0.37 log10, the EC90 amounted to 880 nM and the “FI EC90 AD79/EC90 AD38” value came out at 17.6.

`Nc1ccn([C@@H]2C=C(F)[C@H](CO)O2)c(=O)n1` [L-3′F-D4C, β-L-3′-fluoro-2′,3′--didehydro-2′, 3′--dideoxycytadine]: in data set [1] (1 μM), the “Average ΔCt ± s.d. MitCoxII” value was 0.13 ± 0.16, the “Average ΔCt ± s.d. rDNA” value worked out at 0.08 ± 0.25, the “Average ΔΔCt ± s.d. MitCOXII-rDNA” value was determined as 0.05 ± 0.26 and the “Fold difference in COXII DNA levels normalized for rDNA (range) relative to control” value was 0.96 (1.16-0.80). In data set [1] (10 μM), the “Average ΔCt ± s.d. MitCoxII” value was determined as 0.39 ± 0.15, the “Average ΔCt ± s.d. rDNA” value is listed as −0.11 ± 0.38, the “Average ΔΔCt ± s.d. MitCOXII-rDNA” value was 0.49 ± 0.51 and the “Fold difference in COXII DNA levels normalized for rDNA (range) relative to control” value is given as 0.71 (1.02-0.50). Besides, in data set [1] (100 μM), the “Average ΔCt ± s.d. MitCoxII” value turned out to be 0.20 ± 0.20, the “Average ΔCt ± s.d. rDNA” value was −0.28 ± 0.14, the “Average ΔΔCt ± s.d. MitCOXII-rDNA” value was 0.48 ± 0.13 and the “Fold difference in COXII DNA levels normalized for rDNA (range) relative to control” value is reported as 0.72 (0.79-0.65). Further, in data set [1], the “effect on mitochondrial DNA levels (in words)” value is “no reductions in mitochondrial DNA levels”. Besides, in data set [2], the “HepAD38 log10 inhibition at 10 μM” value came out at 2.68 ± 0.44 log10 and the EC90 was determined as 220 ± 150 nM. The EC90 in data set [2] (listed as L-3F-D4C) is 250 nM. Further, the “effect on cell growth (in words)” value in the data set on HepG2 cells [3] is “did not show any reduction in cell growth”. Besides, in the data set with HepG2 cells [5], the “total lactic acid production (in words)” value is recorded as “no increase in total lactic acid production”. In data set [4], the “HepAD79 log10 inhibition at 10 μM” value is 1.65 ± 0.24 log10, the EC90 is 2300 nM and the “FI EC90 AD79/EC90 AD38” value was 10.5.

On to `Nc1ccn([C@@H]2C=C[C@H](CO)O2)c(=O)n1` [L-d4C], for which, in data set [1] (10 μM), the “Average ΔCt ± s.d. MitCoxII” value is 2.72 ± 0.37, the “Average ΔCt ± s.d. rDNA” value came to 3.96 ± 0.87, the “Average ΔΔCt ± s.d. MitCOXII-rDNA” value is −1.24 ± 0.50 and the “Fold difference in COXII DNA levels normalized for rDNA (range) relative to control” value was 2.36 (1.67-3.35). In addition, in data set [1] (100 μM), the “Average ΔCt ± s.d. MitCoxII” value is recorded as 6.82 ± 0.33, the “Average ΔCt ± s.d. rDNA” value stood at 10.14 ± 0.77, the “Average ΔΔCt ± s.d. MitCOXII-rDNA” value is recorded as −3.32 ± 0.75 and the “Fold difference in COXII DNA levels normalized for rDNA (range) relative to control” value is listed as 9.99 (5.92-16.85). For the same compound, in data set [1], the “effect on mitochondrial DNA levels (in words)” value is “did not specifically affect the mitochondrial DNA levels”. Also, in data set [2], the “HepAD38 log10 inhibition at 10 μM” value was 2.79 ± 0.08 log10 and the 90% effect concentration (EC90) came out at 60 ± 20 nM. In addition, the “effect on cell growth (in words)” value in the data set with HepG2 cells [3] is reported as “reduced the cell growth significantly”. For the same compound, in data set [4], the “HepAD79 log10 inhibition at 10 μM” value came out at 1.54 ± 0.38 log10, the 90% effect concentration (EC90) was 960 nM and the “FI EC90 AD79/EC90 AD38” value worked out at 16.

`Nc1nc(=O)n([C@@H]2C=C(F)[C@H](CO)O2)cc1F` [L-3′F-D4FC, β-L-3′-fluoro-2′,3′-didehydro-2′,3′-dideoxy-5-fluorocytidine]: in data set [1] (1 μM), the “Average ΔCt ± s.d. MitCoxII” value amounted to 0.00 ± 0.13, the “Average ΔCt ± s.d. rDNA” value was −0.46 ± 0.06, the “Average ΔΔCt ± s.d. MitCOXII-rDNA” value stood at 0.35 ± 0.01 and the “Fold difference in COXII DNA levels normalized for rDNA (range) relative to control” value is listed as 0.78 (0.79-0.78). For the same compound, in data set [1] (10 μM), the “Average ΔCt ± s.d. MitCoxII” value stood at 0.23 ± 0.13, the “Average ΔCt ± s.d. rDNA” value is reported as −0.10 ± 0.06, the “Average ΔΔCt ± s.d. MitCOXII-rDNA” value came out at 0.33 ± 0.10 and the “Fold difference in COXII DNA levels normalized for rDNA (range) relative to control” value is on record as 0.80 (0.85-0.74). In addition, in data set [1] (100 μM), the “Average ΔCt ± s.d. MitCoxII” value is listed as −0.52 ± 0.28, the “Average ΔCt ± s.d. rDNA” value is −0.94 ± 0.16, the “Average ΔΔCt ± s.d. MitCOXII-rDNA” value was found to be 0.42 ± 0.13 and the “Fold difference in COXII DNA levels normalized for rDNA (range) relative to control” value is 0.75 (0.82-0.68). The “effect on mitochondrial DNA levels (in words)” value in data set [1] is “no reductions in mitochondrial DNA levels”. In data set [2], the “HepAD38 log10 inhibition at 10 μM” value is 2.8 ± 0.09 log10 and the EC90 amounted to 220 ± 140 nM. For the same compound, in data set [2] (listed as L-3F-D4FC), the EC90 amounted to 250 nM. Besides, in the data set with HepG2 cells [3], the “effect on cell growth (in words)” value was “did not show any reduction in cell growth”. Moreover, the “total lactic acid production (in words)” value with HepG2 cells [5] is “no increase in total lactic acid production”. In data set [4], the “HepAD79 log10 inhibition at 10 μM” value is reported as 1.56 ± 0.40 log10, the EC90 was 3100 nM and the “FI EC90 AD79/EC90 AD38” value turned out to be 14.1.

The values above are taken from US20040157793A1, “Modified nucleosides as antiviral agents” (priority 2002, published 2004).
